Reference: the CheMixHub ionic liquid set

Test: xn = mol fraction of the nth substance listed

CCCC[n+]1ccn(C)c1.N#C[S-] + [Br-].[Li+] + CN1CCCC1=O
298.15 K, 101 kPa
Conditions | viscosity [mPa·s]
x1 = 0.001086, x2 = 0.02623 | 2.384
x1 = 0.001092, x2 = 0.05108 | 3.161
x1 = 0.001138, x2 = 0.07527 | 4.38
x1 = 0.002508, x2 = 0.07516 | 4.412
x1 = 0.002857, x2 = 0.02618 | 2.408
x1 = 0.003083, x2 = 0.05098 | 3.197
x1 = 0.004195, x2 = 0.07504 | 4.452
x1 = 0.004231, x2 = 0.02614 | 2.429
x1 = 0.004315, x2 = 0.05092 | 3.225
x1 = 0.005622, x2 = 0.05085 | 3.261
x1 = 0.005708, x2 = 0.02611 | 2.45
x1 = 0.006129, x2 = 0.07489 | 4.48
x1 = 0.007405, x2 = 0.02606 | 2.464
x1 = 0.007466, x2 = 0.07479 | 4.509
x1 = 0.007731, x2 = 0.05075 | 3.29
x1 = 0.008848, x2 = 0.07469 | 4.531
x1 = 0.008873, x2 = 0.02602 | 2.492
x1 = 0.009097, x2 = 0.05068 | 3.316
x1 = 0.01032, x2 = 0.07458 | 4.563
x1 = 0.01035, x2 = 0.02598 | 2.521
x1 = 0.01065, x2 = 0.0506 | 3.345
x1 = 0.01201, x2 = 0.02594 | 2.555
x1 = 0.01214, x2 = 0.05052 | 3.376
x1 = 0.01216, x2 = 0.07444 | 4.604

CCCC[n+]1ccn(C)c1.N#C[N-]C#N + O + NCCO
100 kPa, x1 = 0.2918, x2 = 0.2557
Conditions | viscosity [mPa·s]
303 K | 11.73
308 K | 9.99
313 K | 8.59
318 K | 7.46
323 K | 6.53

CC(=O)[O-].CC[n+]1ccn(C)c1 + CC(=O)[O-].[NH4+]
323.15 K, 101 kPa, x2 = 0
Conditions | electrical conductivity [S/m] | viscosity [mPa·s]
– | 0.918 | 35.7

CCC[N+](C)(C)C.O=S(=O)([N-]S(=O)(=O)C(F)(F)F)C(F)(F)F + CCC[N+]1(C)CCCCC1.O=S(=O)([N-]S(=O)(=O)C(F)(F)F)C(F)(F)F
101.3 kPa
Conditions | viscosity [mPa·s]
283.15 K, x1 = 0.6 | 248
283.15 K, x1 = 0.8 | 201
293.15 K, x1 = 0.6 | 134
293.15 K, x1 = 0.8 | 113
308.15 K, x1 = 0.4 | 71
308.15 K, x1 = 0.6 | 64
313.15 K, x1 = 0.8 | 45.9
318.15 K, x1 = 0.4 | 46.4
318.15 K, x1 = 0.6 | 42.3
343.15 K, x1 = 0.4 | 20.2
343.15 K, x1 = 0.8 | 17.5
348.15 K, x1 = 0.8 | 15.4
348.15 K, x1 = 1 | 14.6

CCCC[n+]1ccn(C)c1.N[C@@H](CO)C(=O)[O-] + O
100 kPa
Conditions | electrical conductivity [S/m] | viscosity [mPa·s]
298.15 K, x1 = 0.8281 | 0.00761 | –
298.15 K, x1 = 0.8435 | 0.00711 | –
298.15 K, x1 = 0.8592 | 0.00675 | –
298.15 K, x1 = 0.8757 | 0.00646 | –
298.15 K, x1 = 0.8914 | 0.00609 | –
298.15 K, x1 = 0.8939 | – | 5180
298.15 K, x1 = 0.9163 | – | 5221
303.15 K, x1 = 0.8592 | 0.0107 | –
303.15 K, x1 = 0.8757 | 0.0101 | –
303.15 K, x1 = 0.8914 | 0.00973 | –
303.15 K, x1 = 0.8939 | – | 3031
308.15 K, x1 = 0.8757 | 0.0159 | –
313.15 K, x1 = 0.8939 | – | 1179
313.15 K, x1 = 0.939 | – | 1290
328.15 K, x1 = 0.8435 | 0.078 | –
328.15 K, x1 = 0.8521 | – | 338
328.15 K, x1 = 0.8592 | 0.0738 | –
328.15 K, x1 = 0.8939 | – | 367
328.15 K, x1 = 0.939 | – | 422
333.15 K, x1 = 0.8281 | 0.11 | –
333.15 K, x1 = 0.8592 | 0.1 | –
338.15 K, x1 = 0.8521 | – | 179.9
338.15 K, x1 = 0.8592 | 0.132 | –

CCCC[n+]1ccn(C)c1.N#C[S-] + c1ccccc1
viscosity [mPa·s], 100 kPa
Conditions | x2 = 0 | x2 = 0.2334 | x2 = 0.258 | x2 = 0.3919 | x2 = 0.5094
298.15 K | 62.8 | 33 | 30.7 | 20.1 | 12.51
308.15 K | 40.6 | 22.5 | 21.1 | 14.29 | 9.27
318.15 K | 27.8 | 16.2 | 15.23 | 10.64 | 7.16
328.15 K | 20.1 | 12.19 | 11.52 | 8.25 | 5.65

C[N+]1(CCOCCOCCOCC[N+]2(C)CCCC2)CCCC1.N#C[N-]C#N.N#C[N-]C#N + CC[n+]1ccn(C)c1.N#C[N-]C#N + O=S(=O)([N-]S(=O)(=O)C(F)(F)F)C(F)(F)F.[Li+]
100 kPa, x1 = 0.252, x2 = 0.6578
Conditions | electrical conductivity [S/m]
298 K | 0.522
303 K | 0.63
313 K | 0.854
323 K | 1.16
333 K | 1.48
343 K | 1.86

CC(=O)[O-].CC[n+]1ccn(C)c1 + CS(C)=O
298.1 K, 100 kPa
Conditions | electrical conductivity [S/m]
x1 = 0.108 | 0.94
x1 = 0.653 | 0.65

CC[n+]1ccn(C)c1.CS(=O)(=O)[O-] + O
100 kPa, frequency 0.003 MHz
Conditions | electrical conductivity [S/m]
293.15 K, x1 = 0.0165 | 3.25
303.15 K, x1 = 0.1122 | 4.74
313.15 K, x1 = 0.3752 | 2.25
323.15 K, x1 = 0.0489 | 8.42
323.15 K, x1 = 0.2034 | 5.15
323.15 K, x1 = 0.3752 | 2.92
323.15 K, x1 = 0.9339 | 0.827
343.15 K, x1 = 0.0165 | 7.59
343.15 K, x1 = 0.0489 | 11.4
353.15 K, x1 = 0.0165 | 8.61
353.15 K, x1 = 0.0489 | 13
353.15 K, x1 = 0.3752 | 5.32
353.15 K, x1 = 0.9339 | 2.01

Conditions | viscosity [mPa·s]
293.15 K, 100 kPa, x1 = 0.0674 | 3.026
298.15 K, 102.2 kPa, x1 = 0.75 | 42.2
303.15 K, 100 kPa, x1 = 0.0177 | 1.135
303.15 K, 100 kPa, x1 = 0.9357 | 115
303.15 K, 102.2 kPa, x1 = 0.75 | 34.3
313.15 K, 100 kPa, x1 = 0.0357 | 1.237
313.15 K, 100 kPa, x1 = 0.1089 | 3.068
313.15 K, 102.2 kPa, x1 = 0.75 | 24
323.15 K, 100 kPa, x1 = 0.0177 | 0.756
323.15 K, 100 kPa, x1 = 0.0357 | 1.012
323.15 K, 100 kPa, x1 = 0.4263 | 12.22
328.15 K, 102.2 kPa, x1 = 0.75 | 15.7
353.15 K, 100 kPa, x1 = 0.0674 | 0.879
353.15 K, 100 kPa, x1 = 0.1848 | 2.346

CC[NH+](CC)CC.O=S(=O)([O-])O + CS(C)=O
101 kPa
Conditions | viscosity [mPa·s]
298.15 K, x1 = 0.011 | 3.84
298.15 K, x2 = 0.0244 | 228
298.15 K, x2 = 0.199 | 178
298.15 K, x2 = 0.9539 | 9.02
303.15 K, x1 = 0.011 | 3.01
303.15 K, x2 = 0.653 | 40.58
308.15 K, x2 = 0.2473 | 97.6
308.15 K, x2 = 0.4004 | 74.6

CCCC[N+](C)(CCCC)CCCC.[Cl-] + N[C@@H](Cc1ccccc1)C(=O)O + O
viscosity [mPa·s], 101.3 kPa
Conditions | 293.15 K | 298.15 K | 303.15 K | 308.15 K | 313.15 K
x2 = 0, x1 = 0.00144 | – | – | – | – | 0.7
x2 = 0.0003636, x1 = 0.00072 | 0.99 | 0.89 | 0.76 | 0.67 | –
x2 = 0.0003667, x1 = 0.001439 | 0.98 | 0.9 | 0.78 | 0.79 | 0.71
x2 = 0.000726, x1 = 0.0007198 | 1 | 0.9 | 0.77 | 0.68 | –
x2 = 0.0007319, x1 = 0.001438 | 0.99 | 0.91 | 0.8 | 0.8 | 0.72
x2 = 0.00109, x1 = 0.0007195 | 1.02 | 0.92 | 0.78 | 0.69 | –
x2 = 0.001099, x1 = 0.001438 | 1.01 | 0.92 | 0.81 | 0.81 | 0.74
x2 = 0.001452, x1 = 0.0007192 | 1.03 | 0.93 | 0.79 | 0.71 | –
x2 = 0.001466, x1 = 0.001437 | 1.02 | 0.94 | 0.82 | 0.83 | 0.75
x2 = 0.001813, x1 = 0.000719 | 1.04 | 0.94 | 0.81 | 0.72 | –
x2 = 0.001828, x1 = 0.001437 | 1.03 | 0.95 | 0.84 | 0.84 | 0.76
x2 = 0.002175, x1 = 0.0007187 | 1.06 | 0.96 | 0.82 | 0.73 | –
x2 = 0.002194, x1 = 0.001436 | 1.05 | 0.96 | 0.85 | 0.85 | 0.78
x2 = 0.002538, x1 = 0.0007185 | 1.07 | 0.97 | 0.83 | 0.75 | –
x2 = 0.002562, x1 = 0.001436 | 1.06 | 0.98 | 0.86 | 0.87 | 0.79

CCCO + O + CCCCCCCCCCCCOS(=O)(=O)[O-].[Na+]
298 K, 100 kPa, frequency 0.001 MHz
Conditions | electrical conductivity [S/m]
x1 = 0.01544, x3 = 0 | 0.00015
x1 = 0.02615, x2 = 0.9739 | 0.00015
x1 = 0.04738, x2 = 0.9526 | 0.00011
x1 = 0.07176, x2 = 0.9282 | 0.00012
x1 = 0.1087, x2 = 0.8913 | 0.00014

CC(=O)[O-].CC[n+]1ccn(C)c1 + [Cl-].[NH4+]
101 kPa, x2 = 0
Conditions | electrical conductivity [S/m] | viscosity [mPa·s]
308.15 K | 0.473 | 71.3
318.15 K | 0.76 | 44.2

OCC(F)(F)F + COP(=O)([O-])OC.Cn1cc[n+](C)c1
viscosity [mPa·s], 101 kPa
Conditions | 298.15 K | 333.15 K
x2 = 0.4904 | 42.9 | –
x2 = 0.803 | 158.2 | 31.5

CCCC[n+]1ccn(C)c1.N#C[N-]C#N + CC(=O)[O-].[K+] + O
viscosity [mPa·s], 101 kPa
Conditions | 298.15 K | 308.15 K | 318.15 K | 323.15 K
x2 = 0.1831, x3 = 0.8019 | 8.2 | 6 | – | –
x2 = 0.1943, x3 = 0.7933 | 10 | 7.2 | 5.4 | 4.815

ClCCCl + CCCC[n+]1ccn(C)c1.O=S(=O)([N-]S(=O)(=O)C(F)(F)F)C(F)(F)F
Conditions | electrical conductivity [S/m]
294.5 K, 100 kPa, x2 = 0.02555 | 0.68
